Assay results taken from paper doi:10.1101/2025.11.03.686257v1 (bioRxiv, 2025).

How the values were obtained:
Providencia stuartii = assay: Antibiotic resistance characterization of clinical isolate; type: cell-based; conditions: University Hospital Pontchaillou
[1] = tested on: normal human hepatocytes in primary culture; assay: Peptide-Dylight488 streptavidin cell binding assay by flow cytometry; type: cell-based; conditions: peptide-Dylight488 streptavidin complexes
RLEC-like S3 cells = assay: as above; type: cell-based, rat; conditions: peptide-Dylight488 streptavidin complexes, established line
Huh7 HCC cell line = assay: as above; type: cell-based, human; conditions: peptide-Dylight488 streptavidin complexes
[2] = tested on: hepatic stellar-like LX2 cells; assay: as above; type: cell-based, human; conditions: peptide-Dylight488 streptavidin complexes
Hepa1-6 HCC cell line = assay: as above; type: cell-based, murine; conditions: peptide-Dylight488 streptavidin complexes
HEK293T cells = assay: as above; type: cell-based, human; conditions: peptide-Dylight488 streptavidin complexes
HepG2 cells = assay: as above; type: cell-based, human; conditions: peptide-Dylight488 streptavidin complexes
[3] = tested on: bipotent progenitor HepaRG cells 3 days after plating; assay: as above; type: cell-based, human; conditions: P11^Chol-Dylight488 streptavidin complexes
HepaRG-SP cells = assay: as above; type: cell-based, human; conditions: P11^Chol-Dylight488 streptavidin complexes
[4] = Solubility in aqueous solution; type: physicochemical; conditions: stock solutions prepared in PBS at 1mM

Row | Compound | antibiotic resistance/sensitivity of the strain (Providencia stuartii) | binding to cells [1] | binding to cells (RLEC-like S3 cells) | binding to cells (Huh7 HCC cell line) | binding to cells [2] | binding to cells (Hepa1-6 HCC cell line) | further results
1 | CC1(C)S[C@@H]2[C@H](NC(=O)[C@H](N)c3ccccc3)C(=O)N2[C@H]1C(=O)O [ampicillin] | resistant |  |  |  |  |  | 
2 | O=C(N[C@H](CO)[C@H](O)c1ccc([N+](=O)[O-])cc1)C(Cl)Cl [chloramphenicol] | sensitive |  |  |  |  |  | 
3 | CC[C@H]1OC(=O)[C@H](C)[C@@H](O[C@H]2C[C@@](C)(OC)[C@@H](O)[C@H](C)O2)[C@H](C)[C@@H](O[C@@H]2O[C@H](C)C[C@H](N(C)C)[C@H]2O)[C@](C)(O)C[C@@H](C)C(=O)[C@H](C)[C@@H](O)[C@]1(C)O [erythromycin] | resistant |  |  |  |  |  | 
4 | NC[C@H]1O[C@H](O[C@H]2[C@H](O)[C@@H](O[C@H]3O[C@H](CO)[C@@H](O)[C@H](N)[C@H]3O)[C@H](N)C[C@@H]2N)[C@H](O)[C@@H](O)[C@@H]1O [kanamycin] | sensitive |  |  |  |  |  | 
5 | AFLNSNGLPTYSPKIS [Hel-Pyl] |  | no binding | bound | no binding | no binding | no binding | 
6 | EYLNSILSYSPSYYWI [E-select] |  |  |  |  |  |  | binding to cells (HEK293T cells): significant binding; binding to cells (HepG2 cells): significant binding
7 | GTLNNIPTY-YWGKGY [Provid-Stu] |  | no binding | bound | no binding | no binding | no binding | 
8 | TFLNSVPTYSYWGGGS [P11^Chol] |  | no binding | bound | no binding | no binding | no binding | increase in fluorescence intensity, HepaRG D3 versus HepaRG-SP cells [3]: 4 fold; percentage of positive cells ([3]; HepaRG D3): ~18%; percentage of positive cells (HepaRG-SP cells): less than 1%; solubility in aqueous solution [4]: high solubility
9 | amoxicillin + clavulanic acid | resistant |  |  |  |  |  | 
10 | gentamycin | sensitive |  |  |  |  |  | 
